Data as given in US20250388582A1, “NOVEL BICYCLIC HETEROARYL COMPOUND AND USE THEREOF” (ILDONG PHARMACEUTICAL CO., LTD., priority 2022, published 2025).

Key:
[1] = Microsomal metabolic stability assay; assay type: in vitro ADME, human or CD1 male mouse; settings: Clint class; 1 μM compound, 0.5 mg/ml microsomes, NADPH, UDPGA, Alamethicin; species not given
Experimental: The microsomal metabolic stability assay was performed using pooled human or CD1 male mouse interspecies microsomes. Supplemental cofactors (NADPH, UDPGA) and microsomal membrane pore-forming factor (Alamethicin) were added to promote cytochrome P450 (CYP), UGT reactivity to the target compound. Test compounds (1 μM incubation concentration) and microsomes (0.5 mg/ml incubation concentration) were diluted in 0.1 M phosphate buffer, pH 7.4, and incubated (37° C.). The reaction was initiated by the addition of NADPH (1 mM), UDPGA (1 mM) and Alamethicin (25 μg/mg). The incubation times were 0, 5, 15, 30, and 45 minutes, and at each time point, the reaction was terminated by adding acetonitrile containing internal standard (IS)(1:3 ratio). The plate was then sealed, centrifuged (3000 rpm, 20 min, 4° C.), and the supernatant was analyzed by LC-MS/MS. Hepatic extraction ratio values were calculated from the measured in vitro clearance and Intrinsic clearance (Clint) values were calculated from the assay results, and the respective Clint values were categorized into Low, Medium, and High categories based on the reference document (ref. Prostaglandins & other lipid mediators 136 (2018): 90-95).

human GST-PIKFYVE = target: T1, human GST-PIKFYVE (Homo sapiens, UniProt Q9Y2I7); test: ADP-Glo kinase assay, enzyme inhibition activity against human PIKFYVE (Carna biosciences); assay type: biochemical; settings: inhibitory activity at final compound concentration 10 nM; 1 hour at room temperature
T1 construct: GST; purchased Carna biosciences 11-118
Method in brief: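 Human GST-PIKFYVE (glutathione Sepharose-purified) was reacted with substrate and ATP for 1 h at room temperature in 50 mM MOPS, 1 mM DTT, pH 7.2, with compound at 10 nM final. ADP formed was read by ADP-Glo luminescence; inhibition was calculated against no-enzyme (100%) and no-compound (0%) controls.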

PIKFYVE = target: T2, PIKFYVE (Homo sapiens, UniProt Q9Y2I7); test: NanoBRET TE Intracellular Kinase Assay, interaction of PIKFYVE and compounds in HEK293 cells; assay type: cell-based; settings: IC50 class from BRET; HEK293 cells expressing PIKFYVE-NanoLuc; 2 hours incubation
T2 construct: host or cells: HEK293 (ATCC, CRL-1573)
Method in brief: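 HEK293 cells transiently expressing a PIKFYVE-NanoLuc fusion were incubated 2 h at 37 °C, 5% CO2 with compound plus NanoBRET tracer. BRET was read after adding Nano-Glo substrate, giving intracellular target engagement by tracer displacement.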

T1 sequence (Q9Y2I7 whole entry): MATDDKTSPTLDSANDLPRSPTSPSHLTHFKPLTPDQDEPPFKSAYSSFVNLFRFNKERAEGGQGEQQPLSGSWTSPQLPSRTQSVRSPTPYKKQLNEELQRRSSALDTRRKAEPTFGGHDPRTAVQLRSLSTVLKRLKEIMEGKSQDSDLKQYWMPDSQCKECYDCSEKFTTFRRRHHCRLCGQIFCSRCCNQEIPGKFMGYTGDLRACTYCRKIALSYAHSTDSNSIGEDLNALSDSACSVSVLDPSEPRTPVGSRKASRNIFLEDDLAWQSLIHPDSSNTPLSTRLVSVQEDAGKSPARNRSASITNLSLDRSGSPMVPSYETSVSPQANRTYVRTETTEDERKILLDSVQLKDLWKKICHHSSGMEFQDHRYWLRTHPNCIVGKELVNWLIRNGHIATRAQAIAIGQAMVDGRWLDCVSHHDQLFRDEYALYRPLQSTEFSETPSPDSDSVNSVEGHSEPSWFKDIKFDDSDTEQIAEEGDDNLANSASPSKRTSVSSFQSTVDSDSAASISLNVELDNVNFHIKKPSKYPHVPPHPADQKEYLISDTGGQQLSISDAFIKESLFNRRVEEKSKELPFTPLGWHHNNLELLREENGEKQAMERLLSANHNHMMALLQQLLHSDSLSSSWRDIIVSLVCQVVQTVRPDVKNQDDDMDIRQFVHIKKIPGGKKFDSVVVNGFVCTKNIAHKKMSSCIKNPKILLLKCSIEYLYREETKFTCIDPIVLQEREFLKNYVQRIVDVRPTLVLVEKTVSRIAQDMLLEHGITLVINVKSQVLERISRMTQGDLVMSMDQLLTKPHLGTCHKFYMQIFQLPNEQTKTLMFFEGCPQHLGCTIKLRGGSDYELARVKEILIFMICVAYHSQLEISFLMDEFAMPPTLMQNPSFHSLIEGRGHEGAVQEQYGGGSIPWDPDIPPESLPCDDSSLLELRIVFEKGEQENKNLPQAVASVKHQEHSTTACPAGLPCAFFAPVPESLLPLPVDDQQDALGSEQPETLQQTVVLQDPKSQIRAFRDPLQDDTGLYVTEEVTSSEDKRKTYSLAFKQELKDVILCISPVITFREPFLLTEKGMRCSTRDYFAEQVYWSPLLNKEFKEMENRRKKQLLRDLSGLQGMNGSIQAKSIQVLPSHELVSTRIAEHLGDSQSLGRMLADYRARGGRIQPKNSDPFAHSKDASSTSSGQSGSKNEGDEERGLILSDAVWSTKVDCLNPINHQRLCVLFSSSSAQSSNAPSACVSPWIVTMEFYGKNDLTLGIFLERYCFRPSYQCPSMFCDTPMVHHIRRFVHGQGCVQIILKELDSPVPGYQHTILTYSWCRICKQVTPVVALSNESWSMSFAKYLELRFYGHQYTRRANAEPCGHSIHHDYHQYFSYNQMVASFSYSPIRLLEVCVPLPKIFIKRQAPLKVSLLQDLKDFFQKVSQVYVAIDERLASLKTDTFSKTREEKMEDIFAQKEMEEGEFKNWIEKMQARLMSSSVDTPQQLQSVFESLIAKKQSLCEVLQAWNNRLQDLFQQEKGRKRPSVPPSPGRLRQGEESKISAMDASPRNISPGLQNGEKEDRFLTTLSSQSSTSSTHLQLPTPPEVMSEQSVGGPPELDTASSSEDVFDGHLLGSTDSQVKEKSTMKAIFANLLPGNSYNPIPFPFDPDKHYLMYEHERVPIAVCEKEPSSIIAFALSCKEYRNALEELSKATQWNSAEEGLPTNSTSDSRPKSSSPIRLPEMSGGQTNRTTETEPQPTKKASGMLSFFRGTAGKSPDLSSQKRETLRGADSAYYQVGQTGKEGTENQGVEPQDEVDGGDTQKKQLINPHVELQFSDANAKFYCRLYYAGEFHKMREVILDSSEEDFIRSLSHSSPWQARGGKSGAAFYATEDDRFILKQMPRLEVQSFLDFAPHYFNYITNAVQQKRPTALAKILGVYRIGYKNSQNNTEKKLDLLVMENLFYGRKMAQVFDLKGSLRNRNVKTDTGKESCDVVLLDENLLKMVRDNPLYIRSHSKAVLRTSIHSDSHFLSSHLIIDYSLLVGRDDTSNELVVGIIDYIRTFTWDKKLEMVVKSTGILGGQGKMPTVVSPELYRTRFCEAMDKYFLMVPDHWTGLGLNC
T2 sequence (Q9Y2I7 whole entry): as above

Row | Microsomal metabolic stability [1] | ADP-Glo kinase assay (%, 10 nM) (human GST-PIKFYVE) [%] | IC50 (PIKFYVE) [nM] | SMILES
1 | Medium (Medium 8.8~48,) | 85.95 | ≤ 10 | Cc1cccc(/C=N/Nc2nc(N3CCOCC3)nc3c2ncn3-c2cccnc2)c1 [Example 96, (E)-4-(6-(2-(3-methylbenzylidene)hydrazinyl)-9-(pyridin-3-yl)-9H-purin-2-yl)morpholine]
2 | Low (Low <8.8,) | 91.20 | ≤ 10 | COc1cc(-n2cnc3c(N/N=C/c4cccc(C)c4)nc(N4CCOCC4)nc32)ccn1 [Example 101, (E)-4-(9-(2-methoxypyridin-4-yl)-6-(2-(3-methylbenzylidene)hydrazinyl)-9H-purin-2-yl)morpholine]
3 | Medium (Medium 8.8~48,) | 79.21 | 10 to 20 | Cc1cccc(/C=N/Nc2nc(N3CCOCC3)nc3c2ncn3-c2cccnc2C)c1 [Example 109, (E)-4-(6-(2-(3-methylbenzylidene)hydrazinyl)-9-(2-methylpyridin-3-yl)-9H-purin-2-yl)morpholine]
4 | Medium (Medium 8.8~48,) | 89.77 | ≤ 10 | Cc1cccc(/C=N/Nc2nc(N3CCOCC3)nc3c2ncn3-c2sc(C)nc2C)c1 [Example 111, (E)-4-(9-(2,4-dimethylthiazol-5-yl)-6-(2-(3-methylbenzylidene)hydrazinyl)-9H-purin-2-yl)morpholine]
5 | medium | 88.76 | ≤ 10 | COc1ccc(-n2cnc3c(N/N=C/c4cccc(C)c4)nc(N4CCOCC4)nc32)cc1 [Example 120, (E)-4-(9-(4-methoxyphenyl)-6-(2-(3-methylbenzylidene)hydrazinyl)-9H-purin-2-yl)morpholine]
6 | Medium (Medium 8.8~48,) | 92.33 | ≤ 10 | COc1cccc(-n2cnc3c(N/N=C/c4cccc(C)c4)nc(N4CCOCC4)nc32)c1 [Example 121, (E)-4-(9-(3-methoxyphenyl)-6-(2-(3-methylbenzylidene)hydrazinyl)-9H-purin-2-yl)morpholine]
7 | – | 79.77 | ≤ 10 | Cc1cccc(/C=N/Nc2nc(N3CCOCC3)nc3c2ncn3-c2ccc(C#N)cn2)c1 [Example 146, (E)-6-(6-(2-(3-methylbenzylidene)hydrazinyl)-2-morpholino-9H-purin-9-yl)nicotinonitrile]
8 | – | 73.88 | ≤ 10 | Cc1cccc(/C=N/Nc2nc(N3CCOCC3)nc3c2ncn3-c2cc(C)ns2)c1 [Example 148, (E)-4-(6-(2-(3-methylbenzylidene)hydrazinyl)-9-(3-methylisothiazol-5-yl)-9H-purin-2-yl)morpholine]
9 | – | 76.59 | 10 to 20 | Cc1cccc(/C=N/n2cnc3c(Nc4cccnc4)nc(N4CCOCC4)nc32)c1 [Example 191, (E)-9-((3-methylbenzylidene)amino)-2-morpholino-N-(pyridin-3-yl)-9H-purin-6-amine]
10 | – | 65.10 | 20 to 30 | Cc1cccc(/C=N/Nc2nc(N3CCOCC3)nc3c(-c4c(C)noc4C)cccc23)c1 [Example 210, (E)-4-(8-(3,5-dimethylisoxazol-4-yl)-4-(2-(3-methylbenzylidene)hydrazinyl)quinazolin-2-yl)morpholine]
11 | – | 64.14 | 20 to 30 | COc1cccc(-c2cccc3c(N/N=C/c4cccc(C)c4)nc(N4CCOCC4)nc23)c1 [Example 211, (E)-4-(8-(3-methoxyphenyl)-4-(2-(3-methylbenzylidene)hydrazinyl)quinazolin-2-yl)morpholine]
12 | – | 68.30 | 10 to 20 | COc1ccc(-c2cccc3c(N/N=C/c4cccc(C)c4)nc(N4CCOCC4)nc23)cc1 [Example 213, (E)-4-(8-(4-methoxyphenyl)-4-(2-(3-methylbenzylidene)hydrazinyl)quinazolin-2-yl)morpholine]

Further lines, the molecule ahead of its results:

Row | SMILES | Microsomal metabolic stability [1] | ADP-Glo kinase assay (%, 10 nM) (human GST-PIKFYVE) [%] | IC50 (PIKFYVE) [nM]
13 | Cc1cccc(/C=N/Nc2nc(N3CCOCC3)nc3c2ncn3CC(=O)c2ccccn2)c1 [Example 23, (E)-2-(6-(2-(3-methylbenzylidene)hydrazinyl)-2-morpholino-9H-purin-9-yl)-1-(pyridin-2-yl)ethan-1-one] | Medium (Medium 8.8~48,) | 90.82 | ≤ 10
14 | O=C(Cn1cnc2c(N/N=C/c3c[nH]c4ccccc34)nc(N3CCOCC3)nc21)c1ccccn1 [Example 24, (E)-2-(6-(2-((1H-indol-3-yl)methylene)hydrazinyl)-2-morpholino-9H-purin-9-yl)-1-(pyridin-2-yl)ethan-1-one] | Medium (Medium 8.8~48,) | 72.15 | 10 to 20
15 | Cc1cccc(/C=N/Nc2nc(N3CCOCC3)nc3c2ncn3CC(=O)c2ccc[nH]2)c1 [Example 34, (E)-2-(6-(2-(3-methylbenzylidene)hydrazinyl)-2-morpholino-9H-purin-9-yl)-1-(1H-pyrrol-2-yl)ethan-1-one] | Medium (Medium 8.8~48,) | 74.72 | –
16 | COc1ccc(C(=O)Cn2cnc3c(N/N=C/c4cccc(C)c4)nc(N4CCOCC4)nc32)cc1 [Example 39, (E)-1-(4-methoxyphenyl)-2-(6-(2-(3-methylbenzylidene)hydrazinyl)-2-morpholino-9H-purin-9-yl)ethan-1-one] | Medium (Medium 8.8~48,) | 74.99 | 10 to 20
17 | Cc1ccc(C(=O)Cn2cnc3c(N/N=C/c4cccc(C)c4)nc(N4CCOCC4)nc32)cc1 [Example 42, (E)-2-(6-(2-(3-methylbenzylidene)hydrazinyl)-2-morpholino-9H-purin-9-yl)-1-(p-tolyl)ethan-1-one] | Low (Low <8.8,) | 81.60 | ≤ 10
18 | Cc1cccc(/C=N/Nc2nc(N3CCOCC3)nc3c2ncn3CC(=O)c2ccccc2C(F)(F)F)c1 [Example 43, (E)-2-(6-(2-(3-methylbenzylidene)hydrazinyl)-2-morpholino-9H-purin-9-yl)-1-(2-(trifluoromethyl)phenyl)ethan-1-one] | Medium (Medium 8.8~48,) | 80.86 | ≤ 10
19 | Cc1cccc(/C=N/Nc2nc(N3CCOCC3)nc3c2ncn3CC(=O)c2ccccc2Cl)c1 [Example 48, (E)-1-(2-chlorophenyl)-2-(6-(2-(3-methylbenzylidene)hydrazinyl)-2-morpholino-9H-purin-9-yl)ethan-1-one] | Low (Low <8.8,) | 90.25 | ≤ 10
20 | Cc1cccc(-c2ccn(-c3nc(N4CCOCC4)nc4c3ncn4CC(=O)c3ccccn3)n2)c1 [Example 64, 2-(2-morpholino-6-(3-(m-tolyl)-1H-pyrazol-1-yl)-9H-purin-9-yl)-1-(pyridin-2-yl)ethan-1-one] | Medium (Medium 8.8~48,) | 82.48 | ≤ 10
21 | Cc1cccc(/C=N/Nc2nc(N3CCOCC3)nc3c2ncn3C2CN(S(C)(=O)=O)C2)c1 [Example 85, (E)-4-(6-(2-(3-methylbenzylidene)hydrazinyl)-9-(1-(methylsulfonyl)azetidin-3-yl)-9H-purin-2-yl)morpholine] | Medium (Medium 8.8~48,) | 70.06 | –
